According to PMC4635624, “In vitro and in vivo single-agent efficacy of checkpoint kinase inhibition in acute lymphoblastic leukemia” (Journal of Hematology & Oncology, 2015):

How the values were obtained:
[1] = system: Chk1 pathway (Chk1-Cdc25-Cdc2) in BV-173 and NALM-6 cells; test: Western blot analysis of Chk1 pathway; assay type: cell-based, human
Source text: In order to assess whether PF-00477736 efficiently targeted Chk1 pathway, we examined the changes in the downstream phosphorylation of the phosphatase Cdc25C and cyclin-dependent kinase, Cdc2. Moreover, Chk1 itself and γ-H2A.X, which is a marker of stalling replication forks and checkpoint abrogation-induced apoptosis, have been assessed. Functional analyses were initially performed on the most sensitive (BV-173) and the most resistant (NALM-6) B-ALL cell lines, as determined by the viability and apoptosis analyses. Specifically, BV-173 cells were treated with 0.05, 0.1, and 0.2 μM and NALM-6 with 0.1, 0.5, and 1 μM of PF-00477736 for 24 h (Fig. 3a). In the second analysis, BV-173 and NALM-6 cells were treated with the dose of PF-00477736 that goes near to the IC50 (0.1 μM for BV-173 and 1 μM for NALM-6) for 18, 24, 30, and 48 h (Fig. 3b). Thereafter, the same molecular targets have been assessed on all B- and T-ALL cell lines using the dose that goes near to the IC50 (Additional file 1: Figure S4). Active Chk1 phosphorylates Cdc25C at serine 216 throughout the interphase and upon G2 checkpoint activation. This leads to the nuclear export of Cdc25C and its subsequent cytoplasmic sequestration by 14-3-3 protein, which prevents the activation of the downstream target of Cdc25C, the cyclin B/Cdc2 kinase that is responsible for G2/M transition. […] Although the increment of the phosphorylated forms of Chk1 (Ser317 and Ser345) as a consequence of genomic damage amplification, the complete inhibition of Chk1 functionality was confirmed by the progressive reduction of the auto-phosphorylated form of Chk1 (Ser296) in an early time point analysis.
To gain insight into the molecular mechanisms responsible for cell death following treatment, functional analyses by Western blot were performed. Leukemia cell lines were plated in six-well plates at 500,000 cell/1 ml with increasing concentrations of drug for 24 h and incubated at 37 °C. After the treatment, the cells were collected and lysate using a specific buffer made of KH2PO4 0.1 M (pH 7.5), Igepal 1 % (NP-40), β-glicerofosfato 0.1 mM, and complete protease inhibitor cocktail 1× (Roche Diagnostics). […] Finally, all these antibodies were detected using the enhanced chemiluminescence kit ECL (GE) and the compact darkroom ChemiDoc-It (UVP).

NALM-6 cells = conditions: NALM-6 γ-H2A.X positive cells
Protocol: (§1) The so-called hyper-γ-H2A.X-positive cells loose the typical foci signal of γ-H2A.X and emit a much higher and diffuse signal of γ-H2A.X positivity.
(§2) NALM-6 and BV-173 cells were seeded to poly-D lysine-coated slides, fixed with 4 % PFA (paraformaldehyde), and stained at 37 °C with a mouse anti-H2A.X-Phosphorylated Alexa 647 conjugated antibody (BioLegend). Then, they were treated with DAPI (4.6 diamidino-2-phenylindole; Sigma Aldrich), and the slides were mounted with Mowiol (Calbiochem). Images were acquired with wide field fluorescence microscope Olympus BX61 fully motorized driven by Metamorph software, and the analysis was performed using the freeware ImageJ software.

[2] = system: Chk1 pathway in normal bone marrow mononuclear cells; test: Western blot analysis in normal cells; assay type: cell-based, human; conditions: in contrast to leukemia cells
[3] = system: normal bone marrow mononuclear cells; test: Viability of primary cultures of normal cells; assay type: cell-based, human; conditions: 24 h of exposure at 100, 500, and 1000 nM
Protocol: The efficacy of PF-00477736 was confirmed in primary blast cells from 14 newly diagnosed cases including ten BCR-ABL1-positive (71 %) cases and four BCR-ABL1-negative ALL cases (29 %). Leukemic cells were incubated with increasing concentrations of drug (0.1, 0.5, and 1 μM) for 24 h.
Normal bone marrow progenitors were harvested from bone marrow aspirations performed in lymphoma patients undergoing initial staging procedures, which then resulted negative for lymphoma infiltration. Normal peripheral blood progenitors were harvested from healthy donors.
In order to assess the cell viability after treatment with PF-00477736 (Pfizer), ALL cell lines were seeded in 96-well plates at 50,000 cell/100 μl/well with increasing concentrations of drug (0.005–2 μM) for 24 and 48 h and incubated at 37 °C. Cell viability was assessed by adding WST-1 reagent (Roche Applied Science, Basel, Switzerland) to the culture medium at 1:10 dilution. Cells were incubated at 37 °C, and the optical density was measured by microplate ELISA reader at λ = 450 after 3 h. […] In ex-vivo primary leukemia cells, the effects on cell viability were assessed by counting viable and non-viable cell numbers by the trypan blue dye exclusion method. […] Cellular viability was calculated as a percentage of the viable cells compared to the untreated controls (DMSO 0.1 %).

BV-173 cells = test: γ-H2A.X immunofluorescence analysis; assay type: cell-based, human
Protocol: as §1, §2

Cn1cc(-c2[nH]c3cc(NC(=O)[C@H](N)C4CCCCC4)cc4c3c2C=NNC4=O)cn1 [PF-00477736]
phosphorylated forms of Chk1 (Ser317 and Ser345) ([1]; BV-173 0.05-0.2 μM, NALM-6 0.1-1 μM, 24 h): dose-dependently increased
γ-H2A.X level ([1]; Western blot and immunofluorescence, 18, 24, 30, 48 h at dose near IC50): time-dependently increase of γ-H2A.X
auto-phosphorylated form of Chk1 (Ser296) ([1]; after 3 h of treatment, BV-173 and NALM-6, vs untreated): drastically reduced
phosphorylated Cdc25c (Ser216) and Cdc2 (Tyr 15) levels ([1]; dose- and time-dependent, BV-173 0.05-0.2 μM, NALM-6 0.1-1 μM): decreased levels of phosphorylated Cdc25c (Ser216) and Cdc2 (Tyr 15)
fold change of mean value intensity of γ-H2A.X, treated vs untreated (NALM-6 cells): 1.4 fold
phosphorylation of Chk1 (Ser345), Cdc25c (Ser216), Cdc2 (Tyr 15) and phospho-H2A.X [2]: did not induce protein phosphorylation changes
cell viability [3]: did not reduce viability
fold change of mean value intensity of γ-H2A.X, treated vs untreated (BV-173 cells; BV-173 γ-H2A.X positive cells): five-fold
hyper-γ-H2A.X-positive cells among γ-H2A.X-positive cells (BV-173 cells; treated cells, 1.8 % in the untreated controls): ~6.5%
